# From US7718715B2, “pH-modified latex comprising a synergistic combination of biocides” (S.C. Johnson & Son, Inc., priority 2004, dated 2010)
# Key:
# [1] = system: Candida albicans #10231; assay: Challenge Test (Antimicrobial Effectiveness Test), yeast inoculum; type: cell-based; design: key to Challenge Test result: Yeast C. albicans: Fail: Recovery of surviving organisms at 14 days was a failing result for the challenge test; conditions: for Challenge Test result: Yeast C. albicans: stabilized acrylic latex A
# Protocol: The following cultures were obtained from American Type Culture Collection (ATCC) at 10801 University Boulevard, Manassas, Va. 20110-2209: Escherichia coli #11229, Pseudomonas aeruginosa #15442, Candida albicans #10231, Aspergillus niger #6275.
# The yeast inoculum was 0.10 ml of a 72-hr±4 hr culture of C. albicans in 25 grams of sample to give approximately 2×10^5 CFU/g. The C. albicans culture was grown in Potato Dextrose Broth (Difco Laboratories, Detroit, Mich.) at 28° C.
# (§1) Each of the 25-g samples were inoculated or challenged with 0.10 ml of the bacterial inoculum, the yeast inoculum, and the mold inoculum respectively on day-0 and day-14. All samples were stored at ambient temperature. Each sample (10 microliter) was streaked on appropriate agar plates (bacteria on Tryptic Soy Agar (Difco Laboratories, Detroit, Mich.) plates with neutralizer and yeast/mold on Potato Dextrose Agar (Difco Laboratories, Detroit, Mich.) plates with neutralizer) on day-1, day-2, day-3, day-7, day-14, day-15, day-16, day-17, day-21, and day-28 to test for survivors. Streaked plates were incubated at appropriate temperature and time (48-hr at 35±2° C. for bacteria and 72-hr at 28±2° C. for yeast/mold). On day-14, each sample was re-inoculated with appropriate inoculum after streaking on agar plates. Plates were read after incubation time. Recovery of surviving organisms at 14 days was a failing result for the challenge test.
# Biocides were always added after the reaction has been completed and after the batch has been cooled to <50° C. The desired temperature was dependent on the specific biocide. Many biocides become deactivated if exposed to high temperatures for an extended time. Each biocide was diluted with about 5× its weight with DI water and slowly added to the batch with good agitation. The dilution is to prevent the biocide from shocking the latex. The batch was mixed for a minimum of 20 minutes after the biocide was added to ensure good incorporation. If any temporary destabilization to the latex had occurred, it had time to recover prior to filtration.
# The Challenge Test is a qualitative laboratory procedure used to differentiate poorly and marginally preserved products from well-preserved products. Products are intentionally inoculated with test organisms and then evaluated by use of streak plating technique to determine if microbial reduction has been attained.
# [2] = system: Aspergillus niger #6275; assay: Challenge Test (Antimicrobial Effectiveness Test), mold inoculum; type: cell-based; conditions: stabilized acrylic latex A
# Protocol: The following cultures were obtained from American Type Culture Collection (ATCC) at 10801 University Boulevard, Manassas, Va. 20110-2209: Escherichia coli #11229, Pseudomonas aeruginosa #15442, Candida albicans #10231, Aspergillus niger #6275. The mold inoculum was 0.10 ml of A. niger culture specimen in 25 grams of sample to give approximately 2×10^5 CFU/g. The culture specimen was obtained from 7-day-old A. niger culture grown on Sabouraud Dextrose Agar (Difco Laboratories, Detroit, Mich.) with 0.2% Triton X-100 in 0.85% saline. Each of the 25-g samples were inoculated or challenged with 0.10 ml of the bacterial inoculum, the yeast inoculum, and the mold inoculum respectively on day-0 and day-14. All samples were stored at ambient temperature. Each sample (10 microliter) was streaked on appropriate agar plates (bacteria on Tryptic Soy Agar (Difco Laboratories, Detroit, Mich.) plates with neutralizer and yeast/mold on Potato Dextrose Agar (Difco Laboratories, Detroit, Mich.) plates with neutralizer) on day-1, day-2, day-3, day-7, day-14, day-15, day-16, day-17, day-21, and day-28 to test for survivors. Streaked plates were incubated at appropriate temperature and time (48-hr at 35±2° C. for bacteria and 72-hr at 28±2° C. for yeast/mold). On day-14, each sample was re-inoculated with appropriate inoculum after streaking on agar plates. Plates were read after incubation time. Recovery of surviving organisms at 14 days was a failing result for the challenge test. Biocides were always added after the reaction has been completed and after the batch has been cooled to <50° C. The desired temperature was dependent on the specific biocide. Many biocides become deactivated if exposed to high temperatures for an extended time. Each biocide was diluted with about 5× its weight with DI water and slowly added to the batch with good agitation. The dilution is to prevent the biocide from shocking the latex. The batch was mixed for a minimum of 20 minutes after the biocide was added to ensure good incorporation. If any temporary destabilization to the latex had occurred, it had time to recover prior to filtration. The Challenge Test is a qualitative laboratory procedure used to differentiate poorly and marginally preserved products from well-preserved products. Products are intentionally inoculated with test organisms and then evaluated by use of streak plating technique to determine if microbial reduction has been attained.
# [3] = system: Escherichia coli #11229, Pseudomonas aeruginosa #15442; assay: Challenge Test (Antimicrobial Effectiveness Test), bacterial inoculum (1:1 mixture); type: cell-based, E. coli & P. aeruginosa; conditions: stabilized acrylic latex A
# Protocol: The following cultures were obtained from American Type Culture Collection (ATCC) at 10801 University Boulevard, Manassas, Va. 20110-2209: Escherichia coli #11229, Pseudomonas aeruginosa #15442, Candida albicans #10231, Aspergillus niger #6275. The bacterial inoculum was 0.10 ml of a 1:1 mixture of the 24-hr±4 hr culture of E. coli and P. aeruginosa in 25 grams of sample to give approximately 4×10^6 CFU/g. Both E. coli culture and the P. aeruginosa culture were grown in Nutrient Broth (Difco Laboratories, Detroit, Mich.) at 35° C. Each of the 25-g samples were inoculated or challenged with 0.10 ml of the bacterial inoculum, the yeast inoculum, and the mold inoculum respectively on day-0 and day-14. All samples were stored at ambient temperature. Each sample (10 microliter) was streaked on appropriate agar plates (bacteria on Tryptic Soy Agar (Difco Laboratories, Detroit, Mich.) plates with neutralizer and yeast/mold on Potato Dextrose Agar (Difco Laboratories, Detroit, Mich.) plates with neutralizer) on day-1, day-2, day-3, day-7, day-14, day-15, day-16, day-17, day-21, and day-28 to test for survivors. Streaked plates were incubated at appropriate temperature and time (48-hr at 35±2° C. for bacteria and 72-hr at 28±2° C. for yeast/mold). On day-14, each sample was re-inoculated with appropriate inoculum after streaking on agar plates. Plates were read after incubation time. Recovery of surviving organisms at 14 days was a failing result for the challenge test. Biocides were always added after the reaction has been completed and after the batch has been cooled to <50° C. The desired temperature was dependent on the specific biocide. Many biocides become deactivated if exposed to high temperatures for an extended time. Each biocide was diluted with about 5× its weight with DI water and slowly added to the batch with good agitation. The dilution is to prevent the biocide from shocking the latex. The batch was mixed for a minimum of 20 minutes after the biocide was added to ensure good incorporation. If any temporary destabilization to the latex had occurred, it had time to recover prior to filtration. The Challenge Test is a qualitative laboratory procedure used to differentiate poorly and marginally preserved products from well-preserved products. Products are intentionally inoculated with test organisms and then evaluated by use of streak plating technique to determine if microbial reduction has been attained.
# [4] = system: C. albicans & A. niger; assay: Challenge Test end point on yeast and mold and Synergy Index (Kull); type: cell-based; conditions: Dowicil 75 acting alone (QA); test stabilized acrylic latex A
# Protocol: as §1, with “On day-14, each sample was re-inoculated with appropriate inoculum after streaking on agar plates.” left out, “Recovery of surviving organisms at 14 days was a failing result for the challenge test.” left out
# Synergism was determined by the method described by F. C. […] Eisman, H. D. Sylwestrowicz, and R. L. Mayer in Applied Microbiology, Volume 9, pages 538-541, 1961 using the ratio determined by • Synergy Index (SI)=Qa/QA+Qb/QB=1 is additivity, <1 is synergism, and >1 is antagonism • where, • Qa=concentration of compound A, in the mixture, producing an end point • QA=concentration of compound A, acting alone, producing an end point • Qb=concentration of compound B, in the mixture, producing an end point • QB=concentration of compound B, acting alone, producing an end point
# [5] = 0.20% Dowicil 75, 0.00% Bronopol, DN 12%, pH 6.3
# [6] = 0.30% Dowicil 75, 0.00% Bronopol, DN 4%, pH 5.7
# [7] = 0.40% Dowicil 75, 0.00% Bronopol, DN 4%, pH 5.75
# [8] = 0.40% Dowicil 75, 0.00% Bronopol, DN 17%, pH 6.5
structure (smiles),measurement,setting,value
"ClC=CC[N+]12CN3CN(CN(C3)C1)C2.[Cl-] [Dowicil 75, 1-(3-chloroallyl)-3,5,7-triaza-1-azoniaadamantane chloride]",Challenge Test result: Yeast C. albicans,[1]; [5],Fail
same,Challenge Test result: Yeast C. albicans,[1]; [6],Pass
same,killing of the yeast (C. albicans),"[1]; 0.4% DOWICIL 75, stabilized acrylic latex A with DN at 17%",failed to kill
same,Challenge Test result: Yeast C. albicans,[1]; [7],Pass
same,Challenge Test result: Yeast C. albicans,[1]; [8],Fail
same,control of Candida albicans,"[1]; maximum allowable level, test stabilized acrylic latex",failed to control
same,Challenge Test result: Mold A. niger,[2]; [5],Pass
same,Challenge Test result: Mold A. niger,[2]; [6],Pass
same,Challenge Test result: Mold A. niger,[2]; [7],Pass
same,Challenge Test result: Mold A. niger,[2]; [8],Pass
same,Challenge Test result: Bacteria E. coli & P. aeruginosa,[3]; [5],Pass
same,Challenge Test result: Bacteria E. coli & P. aeruginosa,[3]; [6],Pass
same,Challenge Test result: Bacteria E. coli & P. aeruginosa,[3]; [7],Pass
same,Challenge Test result: Bacteria E. coli & P. aeruginosa,[3]; [8],Pass
same,Compound A end-point in %,[4],>0.4%
